Tested on: calcification in injured hearts of ABCC6-deficient mice
Assay: Calcification after heart injury in a mouse model of PXE
Format: in vivo
Conditions: intraperitoneally 1 mcg/daily for 7 days, versus vehicle
Experimental: FIGS. 1A and 1B show calcification in injured hearts in a mouse model of PXE treated with vehicle (A) or ARL67156 (B).
ENPP1 inhibitors attenuate calcification in a mouse model of PXE. Mice genetically deficient in ABCC6 (the causative gene in PXE) were subjected to heart injury, and either (A) vehicle or (B) ARL67156 was administered (intraperitoneally 1 mcg/daily) for 7 days.

SMILES: CCN(CC)c1ncnc2c1ncn2[C@@H]1O[C@H](COP(=O)(O)OP(=O)(O)C(Br)(Br)P(=O)(O)O)[C@@H](O)[C@H]1O [ARL67156]
- calcification in the injured region: significant attenuation of calcification

Reference: patent publication US20220079899A1, “COMPOSITIONS AND METHODS FOR TREATING OCULAR CONDITIONS” (The Regents of the University of California, priority 2019, published 2022)
